Reference: patent publication US7018612B1, “Method of preparing a radioactive rhenium complex solution” (Mallinckrodt Inc., priority 1990, dated 2006)

Experiment: Influence of reaction temperature on stability of Re186-HEDP during storage at ambient temperature
Format: physicochemical

rhenium-186 labelled 1-hydroxyethylidene diphosphonate [Re186-HEDP]
Re186-HEDP content at t=0 (labelling by heating 15 minutes in a boiling water bath (just below 100° C.), t=0): 99.12% | Re186-HEDP content at t=24 h (labelling by heating 15 minutes in a boiling water bath, storage at ambient temperature, t=24 h): 93.72%
